{
  "source": "PubChem BioAssay AID1259409",
  "about": "(Chemical Carcinogenesis Research Information System (CCRIS), 2018)",
  "origin": "cited, not measured here",
  "tested_on": "rodent chemically induced tumor inhibition, incidence and multiplicity",
  "assay": "CCRIS tumor inhibitor studies",
  "data": [
    {"molecule": "C=CC1=C(C)C2=CC3=NC(=C(CC(=O)O)C4=NC(=C(C)C4=C(O)O)C=c4[nH]c(c(C)c4CC)=CC1=N2)C(CCC(=O)O)C3C", "note": "(stereo not given)", "values": [
      {"measurement": "outcome", "setting": "Carcinogen: 2-AMINO-3-METHYLIMIDAZO[4,5-F]QUINOLINE [76180-96-6], Dose [Inhibitor]: 0, 0.01% (W/V BASED ON TOTAL CHLORINS) IN DRINKING WATER BEGINNING 1 WK POST CARCINOGEN TREATMENT FOR THE DURATION STUDY, Route [Inhibitor]: ORAL, Species: RAT, Strain/Sex: F344/MALE, Target Tissue: Type of Lesion: SMALL INTESTINE: TUMOR, Dose [Carcinogen]: 0.03% IN DIET FOR FIRST 5 WK (STUDY DURATION: 52 WK), Promoter: NONE", "value": "0/22 (0%), 2/20 (10%), -%, not significant"},
      {"measurement": "tumour outcome (control, treated, inhibition, significance)", "setting": "Carcinogen: 2-AMINO-3-METHYLIMIDAZO[4,5-F]QUINOLINE [76180-96-6], Dose [Inhibitor]: 0, 0.01% (W/V BASED ON TOTAL CHLORINS) IN DRINKING WATER BEGINNING 1 WK POST CARCINOGEN TREATMENT FOR THE DURATION STUDY, Route [Inhibitor]: ORAL, Species: RAT, Strain/Sex: F344/MALE, Target Tissue: Type of Lesion: ZYMBAL'S GLAND: TUMOR, Dose [Carcinogen]: 0.03% IN DIET FOR FIRST 5 WK (STUDY DURATION: 52 WK), Promoter: NONE", "value": "5/22 (23%), 5/20 (25%), -9%, not significant"},
      {"measurement": "tumour outcome (control, treated, inhibition, significance)", "setting": "Carcinogen: 2-AMINO-3-METHYLIMIDAZO[4,5-F]QUINOLINE [76180-96-6], Dose [Inhibitor]: 0, 0.1% (W/V BASED ON TOTAL CHLORINS) IN DRINKING WATER BEGINNING 1 WK POST CARCINOGEN TREATMENT FOR THE DURATION STUDY, Route [Inhibitor]: ORAL, Species: RAT, Strain/Sex: F344/MALE, Target Tissue: Type of Lesion: COLON: TUMOR, Dose [Carcinogen]: 0.03% IN DIET FOR FIRST 5 WK (STUDY DURATION: 52 WK), Promoter: NONE", "value": "2/22 (9%), 2/22 (9%), 0%, not significant"},
      {"measurement": "tumour outcome (control, treated, inhibition, significance)", "setting": "Carcinogen: 2-AMINO-3-METHYLIMIDAZO[4,5-F]QUINOLINE [76180-96-6], Dose [Inhibitor]: 0, 0.1% (W/V BASED ON TOTAL CHLORINS) IN DRINKING WATER BEGINNING 1 WK POST CARCINOGEN TREATMENT FOR THE DURATION STUDY, Route [Inhibitor]: ORAL, Species: RAT, Strain/Sex: F344/MALE, Target Tissue: Type of Lesion: LIVER: TUMOR, Dose [Carcinogen]: 0.03% IN DIET FOR FIRST 5 WK (STUDY DURATION: 52 WK), Promoter: NONE", "value": "16/22 (73%), 8/22 (36%), 51%, p<0.05"},
      {"measurement": "tumour outcome (control, treated, inhibition, significance)", "setting": "Carcinogen: 2-AMINO-3-METHYLIMIDAZO[4,5-F]QUINOLINE [76180-96-6], Dose [Inhibitor]: 0, 0.1% (W/V BASED ON TOTAL CHLORINS) IN DRINKING WATER BEGINNING 1 WK POST CARCINOGEN TREATMENT FOR THE DURATION STUDY, Route [Inhibitor]: ORAL, Species: RAT, Strain/Sex: F344/MALE, Target Tissue: Type of Lesion: SKIN: TUMOR, Dose [Carcinogen]: 0.03% IN DIET FOR FIRST 5 WK (STUDY DURATION: 52 WK), Promoter: NONE", "value": "7/22 (32%), 8/22 (36%), -12.5%, not significant"},
      {"measurement": "outcome", "setting": "Carcinogen: 2-AMINO-3-METHYLIMIDAZO[4,5-F]QUINOLINE [76180-96-6], Dose [Inhibitor]: 0, 0.1% (W/V BASED ON TOTAL CHLORINS) IN DRINKING WATER BEGINNING 1 WK POST CARCINOGEN TREATMENT FOR THE DURATION STUDY, Route [Inhibitor]: ORAL, Species: RAT, Strain/Sex: F344/MALE, Target Tissue: Type of Lesion: SMALL INTESTINE: TUMOR, Dose [Carcinogen]: 0.03% IN DIET FOR FIRST 5 WK (STUDY DURATION: 52 WK), Promoter: NONE", "value": "0/22 (0%), 0/22 (0%), 0%, not significant"},
      {"measurement": "tumour outcome (control, treated, inhibition, significance)", "setting": "Carcinogen: 2-AMINO-3-METHYLIMIDAZO[4,5-F]QUINOLINE [76180-96-6], Dose [Inhibitor]: 0, 0.1% (W/V BASED ON TOTAL CHLORINS) IN DRINKING WATER BEGINNING 1 WK POST CARCINOGEN TREATMENT FOR THE DURATION STUDY, Route [Inhibitor]: ORAL, Species: RAT, Strain/Sex: F344/MALE, Target Tissue: Type of Lesion: ZYMBAL'S GLAND: TUMOR, Dose [Carcinogen]: 0.03% IN DIET FOR FIRST 5 WK (STUDY DURATION: 52 WK), Promoter: NONE", "value": "5/22 (23%), 3/22 (14%), 39%, not significant"},
      {"measurement": "tumour outcome (control, treated, inhibition, significance)", "setting": "Carcinogen: 7,12-DIMETHYLBENZ[A]ANTHRACENE [57-97-6], Dose [Inhibitor]: 0, 0.5% IN 0.2 ML DMSO-ACETONE (15:85, V/V) 2X/WK FOR 30 WK 10 MIN PRIOR TO PROMOTER DOSE (STUDY DURATION: 31 WK), Route [Inhibitor]: DERMAL, Species: MOUSE, Strain/Sex: ICR/FEMALE, Target Tissue: Type of Lesion: SKIN: PAPILLOMA, Dose [Carcinogen]: 0.2 UMOL ONCE (STUDY DURATION: 31 WK), Promoter: 12-O-TETRADECANOYLPHORBOL-13-ACETATE [16561-29-8]", "value": "100%, 40%, 60%, not calculated"},
      {"measurement": "tumour outcome (control, treated, inhibition, significance)", "setting": "Carcinogen: DIBENZO[A,L]PYRENE [191-30-0], Dose [Inhibitor]: 2052 PPM IN DIET FOR 3 WK BEGINNING 1 WK PRIOR TO FIRST CARCINOGEN DOSE (STUDY DURATION: 11 MONTHS), Route [Inhibitor]: ORAL, Species: FISH, Strain/Sex: SHASTA STRAIN RAINBOW TROUT/MALE,FEMALE, Target Tissue: Type of Lesion: LIVER: TUMOR, Dose [Carcinogen]: 500 PPM IN DIET FOR 2 WK (STUDY DURATION: 11 MONTHS), Promoter: NONE", "value": "61%, 18%, 70%, p<0.001"},
      {"measurement": "tumour outcome (control, treated, inhibition, significance)", "setting": "Carcinogen: DIBENZO[A,L]PYRENE [191-30-0], Dose [Inhibitor]: 2052 PPM IN DIET FOR 3 WK BEGINNING 1 WK PRIOR TO FIRST CARCINOGEN DOSE (STUDY DURATION: 11 MONTHS), Route [Inhibitor]: ORAL, Species: FISH, Strain/Sex: SHASTA STRAIN RAINBOW TROUT/MALE,FEMALE, Target Tissue: Type of Lesion: STOMACH: TUMOR, Dose [Carcinogen]: 500 PPM IN DIET FOR 2 WK (STUDY DURATION: 11 MONTHS), Promoter: NONE", "value": "91%, 34%, 63%, p<0.001"},
      {"measurement": "tumour outcome (control, treated, inhibition, significance)", "setting": "Carcinogen: DIBENZO[A,L]PYRENE [191-30-0], Dose [Inhibitor]: 2052 PPM IN DIET FOR 3 WK BEGINNING 1 WK PRIOR TO FIRST CARCINOGEN DOSE (STUDY DURATION: 11 MONTHS), Route [Inhibitor]: ORAL, Species: FISH, Strain/Sex: SHASTA STRAIN RAINBOW TROUT/MALE,FEMALE, Target Tissue: Type of Lesion: SWIM BLADDER: TUMOR, Dose [Carcinogen]: 500 PPM IN DIET FOR 2 WK (STUDY DURATION: 11 MONTHS), Promoter: NONE", "value": "53%, 3%, 94%, p<0.001"},
      {"measurement": "tumour outcome (control, treated, inhibition, significance)", "setting": "Carcinogen: DIBENZO[A,L]PYRENE [191-30-0], Dose [Inhibitor]: 4000 PPM IN DIET FOR 5 WK BEGINNING 1 WK PRIOR TO FIRST CARCINOGEN DOSE (STUDY DURATION: 9 MONTHS), Route [Inhibitor]: ORAL, Species: FISH, Strain/Sex: SHASTA STRAIN RAINBOW TROUT/MALE,FEMALE, Target Tissue: Type of Lesion: LIVER: TUMOR, Dose [Carcinogen]: 200 PPM IN DIET FOR 4 WK (STUDY DURATION: 9 MONTHS), Promoter: NONE", "value": "36%, 13%, 64%, p<0.001"},
      {"measurement": "tumour outcome (control, treated, inhibition, significance)", "setting": "Carcinogen: DIBENZO[A,L]PYRENE [191-30-0], Dose [Inhibitor]: 4000 PPM IN DIET FOR 5 WK BEGINNING 1 WK PRIOR TO FIRST CARCINOGEN DOSE (STUDY DURATION: 9 MONTHS), Route [Inhibitor]: ORAL, Species: FISH, Strain/Sex: SHASTA STRAIN RAINBOW TROUT/MALE,FEMALE, Target Tissue: Type of Lesion: STOMACH: TUMOR, Dose [Carcinogen]: 200 PPM IN DIET FOR 4 WK (STUDY DURATION: 9 MONTHS), Promoter: NONE", "value": "48%, 13%, 73%, p<0.001"},
      {"measurement": "tumour outcome (control, treated, inhibition, significance)", "setting": "Carcinogen: DIBENZO[A,L]PYRENE [191-30-0], Dose [Inhibitor]: 4000 PPM IN DIET FOR 5 WK BEGINNING 1 WK PRIOR TO FIRST CARCINOGEN DOSE (STUDY DURATION: 9 MONTHS), Route [Inhibitor]: ORAL, Species: FISH, Strain/Sex: SHASTA STRAIN RAINBOW TROUT/MALE,FEMALE, Target Tissue: Type of Lesion: SWIM BLADDER: TUMOR, Dose [Carcinogen]: 200 PPM IN DIET FOR 4 WK (STUDY DURATION: 9 MONTHS), Promoter: NONE", "value": "30%, 5%, 83%, p<0.001"},
      {"measurement": "outcome", "setting": "Dose [Inhibitor]: 250 mg/kg chlorophyllin by gavage daily for 10 days (Study duration 18 wk) (Test material solvent: tricaprylin), Route [Inhibitor]: Oral, Species: Rat, Strain/Sex: F344/Male, Target Tissue: Type of Lesion: Liver: GST placental form positive foci. Colon: aberrant crypt foci, Dose [Carcinogen]: 250 ug/kg by gavage daily for 10 days along or in combination with inhibitor (Study duration 18 wk) (Test material solve, Promoter: None", "value": "liver: 74% reduction in vol % of liver occupied (p<0.001) colon; 63% reduction i"}
    ]}
  ]
}
